Measured values as given in patent publication US11826369B2, “Targeting the TLK1/NEK1 axis in prostate cancer” (Board of Supervisors of Louisiana State University and …, priority 2019, dated 2023).
“And” between values parts separate entries of the source, which are not always exact repeats. Identical values can stand only once.

Legend:
[1] = system: LNCaP, C4-2B, 22RV1, DU14, PC3, TRAMP-C2; assay: Cell proliferation assays of PCa cell line panel; format: cell-based; details: androgen containing medium (FBS)
Description: (§1) All experiments were conducted in triplicates. […] The cells were grown for 2-3 weeks and stained with crystal violet. All experiments were conducted in triplicates. […] The cell lines used were human “normal” RWPE-1, LNCaP, (LNCaP-derivative) C4-2B, 22RV1, DU14, PC3, and mouse TRAMP-C2. FIGS. 11C and 11D show cell proliferation of LNCaP and TRAMP-C2 were determined during a 3 days incubation with different concentration of J54 (MTS assay). All experiments were conducted in triplicates. […] Representative analysis of two independent experiments are shown.
(§2) J54 in combination with anti-androgen (Bicalutamide) induces apoptosis in AS PCa cells. […] The inventors thus tested the same panel of cells in androgen containing medium (FBS) by proliferation assays. […] Note that VCaP cells were 60% inhibited by J54 alone, consistent with their elevated replication stress-driven DDR and checkpoint activation (FIG. 12E), which when suppressed with J54 could lead to apoptosis. Clonogenic assays are unable to distinguish the effects of a DNA damaging agent, which can result in either an impaired or delayed resumption of growth (cell division) or loss of viability due to increased killing of the initial population. The inventors thus measured in LNCaP and TRAMP-C2 cells the early change in cell number (MTT assay) over 72 h with J54 alone.

VCaP cells = assay: Clonogenic assay, VCaP; format: cell-based; details: J54 alone
Description: as §1, §2

LNCaP, VCaP and TRAMP-C2 = assay: Clonogenic assays of AS PCa cells; format: cell-based
Description: as §1, §2

LNCaP xenografts = assay: LNCaP xenograft model; format: in vivo, NOD/SCID mice; details: IP bi-weekly
Description: Treatment started 19 days after implantation when the tumors measure ˜200 mm^3. Two independent experiment with 5 mice per group were carried out. J54 and Bicalutamide was dissolved in DMSO and diluted in corn oil 1:10 and administered IP bi-weekly. Sectioning and processing of the tissues were carried out in the FWCC Histology Service, using automated processes and equipment to provide uniform and standardized results. Indirect labeling was with ABC Elite: RTU Vectastain Elite Reagent, Vector #PK-7100; DAB: ImmPact DAB, Vector #SK-4105. Light counterstaining was done with hematoxylin. […] Note the weak pNek1 stain in the tumor from mice treated with J54, in contrast to the increase seen with BIC.
LNCaP Xenograft Model and Immunohistochemistry (IHC): All animals used in this study were approved by LSUHSC IACUC and following ARRIVE guidelines. Male NOD/SCID mice (5 per group) were purchased from Jackson labs. LNCaP cells were injected as described earlier. Mice were treated IP bi-weekly with J54 (5 mg/kg body weight—dose estimation derived from pharmacokinetics study) and/or Bicalutamide (100 mg/kg).
(§3) The inventors sought to establish if the addition of J54 could suppress the resurgence of tumor growth of LNCaP xenografts and their latter conversion to CRPC. Following formation of sizeable tumors (˜200 mm^3), castration or anti-androgens arrest the progression of LNCaP xenografts for some time (2-3 weeks), while subsequently the tumors start growing again at an accelerated rate which is refractory to ADT (AI). Therefore, the inventors injected LNCaP cells in matrigel in both flanks of NOD-SCID mice, and then randomly assigned them to four treatment groups (n=5 per group×2 independent experiments), as shown in FIGS. 13A-13C. […] The inventors should also point out that the inventors treated the mice with J54 only bi-weekly due to the favorable pharmacokinetics, where maximal plasma concentration of 100 ng/ml ([…]) were reached 2 h after IP injection, and was still present at −6 ng/ml (6 μM) after 24 h (FIG. 18A-18C).

[2] = system: p-Nek1-T141 in LNCaP, VCaP, TRAMP-C2; assay: Western blots of checkpoint and apoptotic markers; format: cell-based; details: with or without BIC, all 3 AS cell lines
Description: LNCaP, VCaP, and TRAMP-C2 cells from the four treatment groups as indicated were analyzed by WB for several indicators of DNA damage/apoptosis and mediators of cell cycle arrest. Representative analysis of two independent experiments for each cell line are shown
J54 with Bicalutamide suppresses the checkpoint markers and induces apoptotic markers. LNCaP, VCaP, and TRAMP-C2 are the main examples of established PCa cell lines that are initially AS, but when maintained in ADT condition, recapitulate the conversion to AI growth observed in patients, and start growing again. In the initial phase of ADT, they arrest cell division, primarily at the G1/S transition, and become quiescent, which is a protective effect from undergoing replication forks collapse upon inhibition of the licensing function of the AR. […] The inventors were also able to reproduce that the expression of TLK1B was induced in LNCaP and TRAMP-C2 following the addition of BIC. […] The VCaP cells were a little different because even without any BIC, p-ATR and p-Chk1 were already elevated. This has been observed before and attributed to a constitutive DDR activation due to the TMPRSS2-ERG fusion in these cells.

LNCaP and TRAMP-C2 cells = assay: Early change in cell number (MTT assay) over 72 h; format: cell-based; details: J54 alone
Description: as §1, §2

[3] = Pharmacokinetics, plasma distribution after IP injection; format: in vivo, mice
Description: FIGS. 18A-18C show pharmacokinetics plasma distribution of J54.
as §3

With c1ccc2c(c1)Sc1ccccc1N2CCN1CCOCC1 [J54, 4-(2-(10H-phenothiazin-10-yl)ethyl) morpholine] the “concentration of maximal efficacy” value [1] was “around 18 μM”, the inhibition of proliferation [1] was “weak dose-dependent inhibition” and the “inhibition of colony formation” value (VCaP cells) was 60%. The “growth of colonies of LNCaP cells cultured with BIC” value (LNCaP, VCaP and TRAMP-C2) was “suppresses the growth of androgen-dependent colonies”, the tumor weight (LNCaP xenografts; end of treatment) was “significant suppression” and the tumor growth (LNCaP xenografts; J54 5 mg/kg, Bicalutamide 100 mg/kg) was “significant suppression”. The p-Nek1-T141 level [2] was “reduction in the p-Nek1-T141”, the “change in cell number” value (LNCaP and TRAMP-C2 cells) was “actual loss in cell counts in relation to the dose” and the maximal plasma concentration ([3]; IP injection) was 100 ng/ml and 35 μM. For the same compound, the “time of maximal plasma concentration” value ([3]; after IP injection) was 2 h and the concentration at 24 h ([3]; mouse, plasma, IP injection) was 6 µM.
